From patent publication US20110020914A1, “METHODS FOR ENHANCING GROWTH OF ORGANISMS IN AN AQUEOUS GROWTH MEDIUM” (NOVUS INTERNATIONAL INC, priority 2009, published 2011)

Experiments:
Type in all cases: cell-based
Nitzchia sp. microalgae = assay: Effect of chelated zinc on growth (cell density) of Nitzchia sp. microalgae; settings: 10^−3 mg/ml, 18 days, vs control
Method: To assess the efficacy of HMTBA-chelated zinc (BIOX-Z) on the growth of microalgae from the genus Nitzchia, the following experiment was conducted. Microalgae from the genus Nitzchia was maintained in stock cultures as described in Example 1. The microalgae were inoculated into 1 L flasks and varying amounts of BIOX-Z were added to the flasks as described in Example 1. The Nitzchia cells were grown in the flasks as described in Example 1 for a total of 18 days. Samples were taken from the flasks each day to assess the cell density as described in Example 1.

Chlorella vulgaris [1] = assay: Effect of chelated micronutrients on protein content (Coomassie Blue G, 595 nm) of Chlorella vulgaris
Method: To assess the efficacy of chelated micronutrients on the protein content of Chlorella vulgaris, a fresh-water green microalgae, the following experiment was conducted. Chlorella vulgaris microalgae colonies were cultured in algal culture media containing added BIOX-C, BIOX-Z, and BIOX-M as described in Example 3.
Samples from each flask were taken after 2, 7, 12, 15, 21, and 30 days of growth in the flasks and analyzed in triplicate to determine the protein content of the microalgae cells. The protein contents of the microalgal colonies were determined by using a spectrophotometer to measure microalgal cells in which the proteins were marked with a dye. 0.04-mL culture samples were gently mixed with 2 ml of Coomassie Blue G dye in a 4 mL plastic cuvette. Cytoplasmic proteins were then measured by measuring the absorbance of the dyed sample at a wavelength of 595 nm using a […].

Chlorella vulgaris [2] = assay: Effect of chelated micronutrients on lipid accumulation (Nile Red fluorescence) in Chlorella vulgaris
Method: To assess the efficacy of chelated micronutrients on the lipid content of Chlorella vulgaris, a fresh-water green microalgae, the following experiment was conducted. Chlorella vulgaris microalgae colonies were cultured in algal culture media containing added BIOX-C, BIOX-Z, and BIOX-M as described in Example 3. Samples from each flask were taken after 9, 30, and 39 days of growth in the flasks and analyzed in triplicate to determine the lipid content of the microalgae cells. A fluorometric method was used determine cellular lipid accumulation. 4-mL culture samples were mixed with Nile Red (9-diethylamino-5H-benzophenoxazine-5-one) at a 100:1 volume ratio and allowed to stain for about seven minutes. Cytoplasmic lipids were then measured by the florescence intensity using a fluorometer (excitation 475 nm; emission 585 nm). The relative fluorescence for lipid content was obtained after subtraction of both the autofluorescence of algal cells and the self-fluorescence of the Nile Red dye from the uncorrected readings at 585 nm wavelengths.

Chlorella vulgaris [3] = assay: Effect of chelated micronutrients on growth (cell density, spectrophotometer 450 nm) of Chlorella vulgaris; settings: up to 24 days, vs control
Method: To assess the efficacy of chelated micronutrients on the growth of Chlorella vulgaris, a fresh-water green microalgae, the following experiment was conducted. Chlorella vulgaris microalgae were maintained in stock cultures as described in Example 1. The microalgae were inoculated at an initial concentration of about 10^4 cells/ml into 250 ml conical flasks containing 100 ml of an algal growth medium having a composition described in Table 3.
Three different chelated micronutrient compositions were added to the growth medium of the flasks at six different concentrations to each algal culture for final concentrations of 0 mg/ml (control), […], 10^−4 mg/ml, 10^−3 mg/ml and 10^−2 mg/ml. The metal micronutrient compositions tested were Cu-HMTBA (BIOX-C), Zn-HMTBA (BIOX-Z), and Mn-HMTBA (BIOX-M). For each concentration of a particular micronutrient composition, three duplicate flasks were tested.
The flasks containing the added compounds were cultured in a chamber in which the temperature was maintained at 21° C.-25° C. In addition, the chamber provided continuous uniform illumination with a quantum flux of 0.72 10-20 photon/m^2+/−20% in the spectral range of 400-700 nm (8000 flux). The contents of the flasks were shaken, stirred, or aerated during the experiment to facilitate the transfer of CO2 to the microalgae.
Samples from each flask were taken after 2, 7, 12, 15, 18, 21, and 24 days of growth in the flasks and analyzed in quadruplicate to determine the cell density of the microalgae. The cell density was determined using a spectrophotometer at a wavelength setting of 450 nm and using a filtered growth medium sample as a blank. The sample volume analyzed was 100 μL per well.

Dunaliella tertiolecta = assay: Effect of chelated zinc on growth (cell density, haemocytometer) of Dunaliella tertiolecta; settings: cultured with 10^−6 to 10^−2 mg/ml in f/2 medium, 18 days, vs control
Method: To assess the efficacy of adding HMTBA-chelated zinc (BIOX-Z) to the growth medium on the growth of the microalgae Dunaliella tertiolecta, the following experiment was conducted. Dunaliella tertiolecta was maintained in stock cultures in 20 ml test tubes at a cell density of about 2.5-5.0×10^4 cells/ml as seed cultures and maintained on a seven-day transfer cycle. The microalgae were inoculated into 1 L Pyrex glass Erlenmeyer flasks containing 250 ml of f/2 growth medium (Guillard 1975).
BIOX-Z was dissolved in distilled water and added at six different concentrations to each algal culture for final concentrations of 0 mg/ml (control), 10^−6 mg/ml, 10^−5 mg/ml, 10^−4 mg/ml, 10^−3 mg/ml and 10^−2 mg/ml. Each of the six test groups included 3 individual flasks.
The D. tertiolecta cells were grown in the flasks at a temperature of about 20° C. for a total of 18 days. Light was supplied to the cultures on a cycle of 12 hours of light and 12 hours of dark, at an intensity of 133-299 uEin/sec/cm^2 using a fluorescent light bulb bank (2-F20T12 Westinghouse cool white, Westinghouse Electric Corp., USA). Five samples from each of the test groups were taken each day, and the cell density of each sample was determined using a haemocytometer.

[4] = all concentrations, through the entire period of growth
[5] = 0.000001-0.0001 mg/mL, after thirty days of growth
[6] = 0.001 mg/mL, thirty days of growth
[7] = all concentrations, after 30 days of growth

| SMILES | growth of Chlorella vulgaris (cell density) (Chlorella vulgaris [3]; 10^−2 mg/mL) | growth of Chlorella vulgaris (cell density) (Chlorella vulgaris [3]; 10^−3 mg/mL) | growth of Chlorella vulgaris (cell density) (Chlorella vulgaris [3]; 10^−4 mg/mL) | growth of Chlorella vulgaris (cell density) (Chlorella vulgaris [3]; 10^−5 mg/mL) | growth of Chlorella vulgaris (cell density) (Chlorella vulgaris [3]; 10^−6 mg/mL) | protein content relative to control (Chlorella vulgaris [1]; [5]) | protein content relative to control (Chlorella vulgaris [1]; [6]) | lipid content of Chlorella vulgaris cells (Chlorella vulgaris [2]; [7]) | also measured |
| --- | --- | --- | --- | --- | --- | --- | --- | --- | --- |
| CSCCC(O)C(=O)[O-].CSCCC(O)C(=O)[O-].[Zn+2] (stereo not shown) [BIOX-Z, Zn-HMTBA] | no effect | enhanced | enhanced | enhanced | enhanced |  |  |  | concentration of Nitzchia cells (Nitzchia sp. microalgae): enhanced; protein content of Chlorella vulgaris cells, concentration of greatest enhancement (Chlorella vulgaris [1]; 10^−5 mg/mL): most enhanced; protein content relative to control (Chlorella vulgaris [1]; 10^−5 mg/mL, after 30 days of growth): over twelve times; protein content of Chlorella vulgaris cells (Chlorella vulgaris [1]; [4]): enhanced; lipid content of Chlorella vulgaris cells, concentration of greatest enhancement (Chlorella vulgaris [2]; 10^−3 mg/mL): most enhanced; lipid content of Chlorella vulgaris cells (Chlorella vulgaris [2]; [4]): enhanced; concentration of D. tertiolecta cells (Dunaliella tertiolecta): enhanced |
| CSCCC(O)C(=O)[O-].CSCCC(O)C(=O)[O-].[Cu+2] (stereo not shown) [BIOX-C, Cu-HMTBA] | inhibited | no effect | enhanced | enhanced | enhanced | 10-12 times the control protein content | about 4.5 times the control protein content | enhanced | protein content of the microalgae cells (Chlorella vulgaris [1]; 0.01 mg/mL, vs control cells): inhibited; protein content relative to control (Chlorella vulgaris [1]; 10^−4 mg/mL, after thirty days of growth, largest enhancement of all compositions tested): about 12.8 times the control protein content; protein content of Chlorella vulgaris cells (Chlorella vulgaris [1]; all concentrations except 0.01 mg/mL, at twelve days of growth or longer): enhanced; enhancement of microalgal lipid content compared with all compositions tested (Chlorella vulgaris [2]; 10^−2 mg/mL): largest enhancement; lipid content of Chlorella vulgaris cells (Chlorella vulgaris [2]; 10^−2 mg/mL, after 39 days of growth): higher lipid content than the control colony; lipid content of Chlorella vulgaris cells (Chlorella vulgaris [2]; 10^−3 mg/mL, after 39 days of growth): higher lipid content than the control colony; lipid content of Chlorella vulgaris cells (Chlorella vulgaris [2]; all concentrations, after 9 days of growth): enhanced |
| CSCCC(O)C(=O)[O-].CSCCC(O)C(=O)[O-].[Mn+2] (stereo not shown) [BIOX-M, Mn-HMTBA] | enhanced | inhibited | enhanced | enhanced | enhanced | 10-12 times the control protein content | 7-8 times the control protein content | enhanced | protein content relative to control (Chlorella vulgaris [1]; 0.01 mg/mL, thirty days of growth): 7-8 times the control protein content; protein content of Chlorella vulgaris colonies (Chlorella vulgaris [1]; all concentrations, after 21 days or more of growth): enhanced; lipid content of Chlorella vulgaris colonies (Chlorella vulgaris [2]; 10^−5 mg/mL, after 39 days): enhanced to a lesser degree; lipid content of Chlorella vulgaris colonies (Chlorella vulgaris [2]; 10^−6 mg/mL, after 39 days): enhanced to a lesser degree; lipid content of Chlorella vulgaris colonies (Chlorella vulgaris [2]; concentrations of less than 10^−2 mg/mL, after nine days): enhanced |
